Where a name gives a salt, the structure may show the parent alone. Read-outs that look alike come from different tables or passages of the source.
Columns and labels:
Assay type in all cases: cell-based
H1650 = assay: Cell viability analysis (WST-1), H1650; settings: Homo sapiens, read-out: survival rate (viability) of cells
Experimental: (§1) The cell numbers were counted and reseed as 2×10^6 in culture plate/flask. Then, the culture medium were added to a volume of 10 ml, and the cells were cultured for 2-3 days. Then, the cells were suspended for loading into 96-well plates. The number of cells was 3000 and the volume of the culture medium was 100 μl each well.
Removing the original culture medium from 96-well plate. Then add 100 μl of commercially drug at a concentration of 10 μM per well. After 72 hours, add the diluted WST-1 reagent to the well with 100 μl/well, and the diluted WST-1 reagent was acquired from the dilution of 9:1 medium and WST-1 stock reagent. Finally, the total volume of each well was 200 μl/well. […] Detecting and calculate the survival rate of each cancer cells with an ELISA reader at OD450 nm. The lower viability of cancer cells represents better inhibition effect via the Cinacalcet HCl drug. Otherwise, the higher viability of cancer cells represents worse inhibition effect via the Cinacalcet HCl drug.
This inhibition test of Cinacalcet HCl on pleural-related cancer cells were using two lung cancer cell lines A549 and H1650. The inhibitory tests of Cinacalcet HCl were performed 4 times for each cell lines and then the average value of the inhibitory tests was calculated.

Hep3B = assay: Cell viability analysis (WST-1), Hep3B; settings: Homo sapiens, read-out: survival rate (viability) of cells
Experimental: as §1
(§2) Removing the original culture medium from 96-well plate. Then add 100 μl of commercially drug at a concentration of 10 μM per well. After 72 hours, add the diluted WST-1 reagent to the well with 100 μl/well, and the diluted WST-1 reagent was acquired from the dilution of 9:1 medium and WST-1 stock reagent. Finally, the total volume of each well was 200 μl/well. Culture the 96-well plate at 37° C. for 30 to 90 minutes. Detecting and calculate the survival rate of each cancer cells with an ELISA reader at OD450 nm. The lower viability of cancer cells represents better inhibition effect via the Cinacalcet HCl drug. Otherwise, the higher viability of cancer cells represents worse inhibition effect via the Cinacalcet HCl drug.
(§3) This inhibition test of Cinacalcet HCl on gastrointestinal tract-related cancer cells were using gastric cancer cell lines AGS and MKN-45 (Table 9), hepatic cancer cell lines HepG2 and Hep3B (Table 10), colorectal cancer cell lines HCT116-wt and LoVo (Table 11), pancreatic cancer cell line AsPC-1 and BxPC-3(Table 12), tongue cancer cell line SAS (Table 13). The inhibitory tests of Cinacalcet HCl were performed 4 times for each cell lines and then the average value of the inhibitory tests was calculated.

skin cancer cells = assay: Summary of cell viability, skin cancer cells; settings: 72 hours, read-out: Inhibitory effect
Experimental: as §1, §2
(§4) Cinacalcet HCl is having different inhibitory effect on different tumor cell type even in the same cancer. […] (FIG. 1)

colorectal cancer cells = assay: Summary of cell viability, colorectal cancer cells; settings: 72 hours, read-out: Inhibitory effect
Experimental: as §1, §2, §4

prostate cancer cells = assay: Summary of cell viability, prostate cancer cells; settings: 72 hours, read-out: Inhibitory effect
Experimental: as §1, §2, §4

MCF7 = assay: Cell viability analysis (WST-1), MCF7; settings: Homo sapiens, read-out: survival rate (viability) of cells
Experimental: as §1, §2
(§5) This inhibition test of Cinacalcet HCl on endocrine-related cancer cells were using prostate cancer cell lines PC-3 and LNCap (Table 6), breast cancer cell lines MCF7 and MDA-MB-231 (Table 7), and ovarian cancer cell lines NIH-OVCAR-3 and TOV-21G (Table 8). The inhibitory tests of Cinacalcet HCl were performed 4 times for each cell lines and then the average value of the inhibitory tests was calculated.

SAS = assay: Cell viability analysis (WST-1), SAS
Experimental: as §1, §2, §3

786-O = assay: Cell viability analysis (WST-1), 786-O; settings: Homo sapiens
Experimental: as §1, §2
(§6) This inhibition test of Cinacalcet HCl on abdominal-related cancer cells were using bladder cancer cell line TSGH and T24 (Table 3), cervical cancer cell lines HeLa and C-33A (Table 4), renal cancer cell line 786-O (Table 5). The inhibitory tests of Cinacalcet HCl were performed 4 times for each cell lines and then the average value of the inhibitory tests was calculated.

lung cancer cells = assay: Summary of cell viability, lung cancer cells; settings: 72 hours, read-out: Inhibitory effect
Experimental: as §1, §2, §4

pancreatic cancer cells = assay: Summary of cell viability, pancreatic cancer cells; settings: 72 hours, read-out: Inhibitory effect
Experimental: as §1, §2, §4

various cancer cells = assay: Inhibitory effect on various cancer cells; settings: FIG. 1
Experimental: as §2, §4

AGS = assay: Cell viability analysis (WST-1), AGS; settings: Homo sapiens, read-out: survival rate (viability) of cells
Experimental: as §1, §2, §3

HeLa = assay: Cell viability analysis (WST-1), HeLa; settings: Homo sapiens, read-out: survival rate (viability) of cells
Experimental: as §1, §2, §6

T24 = assay: Cell viability analysis (WST-1), T24; settings: Homo sapiens, read-out: survival rate (viability) of cells
Experimental: as §1, §2, §6

PC-3 = assay: Cell viability analysis (WST-1), PC-3; settings: Homo sapiens, read-out: survival rate (viability) of cells
Experimental: as §1, §2, §5

C[C@@H](NCCCc1cccc(C(F)(F)F)c1)c1cccc2ccccc12 [Cinacalcet HCl, Cinacalcet hydrochloride]
viability at 10 µM (H1650; NCI-H1650, 10 μM, 72 hours, test 1-10 min): 86.8% | viability at 10 µM (H1650; NCI-H1650, 10 μM, 72 hours, test 2-20 min): 67.5% | viability at 10 µM (H1650; NCI-H1650, 10 μM, 72 hours, test 3-20 min): 76.8% | viability at 10 µM (H1650; NCI-H1650, 10 μM, 72 hours, test 4-20 min): 75.2% | viability at 10 µM (H1650; NCI-H1650, 72 h, 10 μM, Average of tests): 76.5% | viability at 10 µM (Hep3B; 72 h, average of tests): 134% | viability at 10 µM (Hep3B; 72 hours, test 0612-20 min): 143% | viability at 10 µM (Hep3B; 72 hours, test 0614-20 min): 125% | viability at 10 µM (Hep3B; 72 hours, test 0616-20 min): 152% | viability at 10 µM (Hep3B; 72 hours, test 0619-20 min): 117% | viability at 10 µM (skin cancer cells): 80% | viability at 10 µM (colorectal cancer cells): 74.4% | viability at 10 µM (prostate cancer cells): 81.7% | viability at 10 µM (MCF7; MCF7, 10 μM, 72 hours, test 0612-10 min): 87.7% | viability at 10 µM (MCF7; MCF7, 10 μM, 72 hours, test 0614-10 min): 75.6% | viability at 10 µM (MCF7; MCF7, 10 μM, 72 hours, test 0616-10 min): 82.2% | viability at 10 µM (MCF7; MCF7, 10 μM, 72 hours, test 0619-10 min): 77.2% | viability at 10 µM (MCF7; MCF7, 72 h, 10 μM, average of tests): 80.7% | viability at 10 µM (SAS; 72 h, average of tests, read-out: survival rate (viability) of cells): 82.4% | viability at 10 µM (SAS; 72 h, summary, tongue cancer, read-out: Inhibitory effect): 77.4% | viability at 10 µM (SAS; 72 hours, test 6-26-10 min, read-out: survival rate (viability) of cells): 45.7% | viability at 10 µM (SAS; 72 hours, test 6-28-10 min, read-out: survival rate (viability) of cells): 88.9% | viability at 10 µM (SAS; 72 hours, test 6-30-10 min, read-out: survival rate (viability) of cells): 96.2% | viability at 10 µM (SAS; 72 hours, test 7-3-10 min, read-out: survival rate (viability) of cells): 98.9% | viability at 10 µM (786-O; 786-0, 10 μM, 72 hours, test 0524-10 min, read-out: survival rate (viability) of cells): 81.3% | viability at 10 µM (786-O; 786-0, 10 μM, 72 hours, test 0526-10 min, read-out: survival rate (viability) of cells): 71.6% | viability at 10 µM (786-O; 786-0, 10 μM, 72 hours, test 0529-10 min, read-out: survival rate (viability) of cells): 80.2% | viability at 10 µM (786-O; 786-0, 10 μM, 72 hours, test 0531-10 min, read-out: survival rate (viability) of cells): 87.1% | viability at 10 µM (786-O; 786-0, 72 h, 10 μM, average of tests, read-out: survival rate (viability) of cells): 80% | viability at 10 µM (786-O; 786-0, 72 h, summary, Kidney cancer, 10 μM, read-out: Inhibitory effect): 87.5% | viability at 10 µM (lung cancer cells): 83.1% | viability at 10 µM (pancreatic cancer cells): 82.4% | inhibitory effect on various cancer cells (various cancer cells): significant inhibitory effect and specificity | viability at 10 µM (AGS; 72 h, average of tests): 28.3% | viability at 10 µM (AGS; 72 hours, test 0510-10 min): 26.6% | viability at 10 µM (AGS; 72 hours, test 0512-10 min): 20% | viability at 10 µM (AGS; 72 hours, test 0515-10 min): 52.3% | viability at 10 µM (AGS; 72 hours, test 0517-10 min): 14.5% | viability at 10 µM (HeLa; 72 h, average of tests): 111% | viability at 10 µM (HeLa; 72 hours, test 0524-10 min): 110% | viability at 10 µM (HeLa; 72 hours, test 0526-10 min): 119% | viability at 10 µM (HeLa; 72 hours, test 0529-10 min): 104% | viability at 10 µM (HeLa; 72 hours, test 0531-10 min): 113% | viability at 10 µM (T24; T-24, 10 μM, 72 hours, test T24-1-30 min): 71.1% | viability at 10 µM (T24; T-24, 10 μM, 72 hours, test T24-2-20 min): 133% | viability at 10 µM (T24; T-24, 10 μM, 72 hours, test T24-3-20 min): 177% | viability at 10 µM (T24; T-24, 10 μM, 72 hours, test T24-4-20 min): 103% | viability at 10 µM (T24; T-24, 72 h, 10 μM, average of tests): 121% | viability at 10 µM (PC-3; PC-3, 10 μM, 72 hours, test PC-3-0524-10 min): 103% | viability at 10 µM (PC-3; PC-3, 10 μM, 72 hours, test PC-3-0526-10 min): 132% | viability at 10 µM (PC-3; PC-3, 10 μM, 72 hours, test PC-3-0529-10 min): 120% | viability at 10 µM (PC-3; PC-3, 10 μM, 72 hours, test PC-3-0531-10 min): 135% | viability at 10 µM (PC-3; PC-3, 72 h, 10 μM, average of tests): 122%
